From ChEMBL document CHEMBL1949511, “Asymmetrical 2,6-bis(benzylidene)cyclohexanones: Synthesis, cytotoxic activity and QSAR study” (Eur J Med Chem, 2012)
Converted amounts (≈) assume the structure as drawn.

Assays:
MCF7 [1] = experiment: Cytotoxicity against human MCF7 cells by MTT assay; format: functional, cell-based
MDA-MB-231 [2] = experiment: Cytotoxicity against human MDA-MB-231 cells by MTT assay; format: functional, cell-based
SK-N-MC [3] = experiment: Cytotoxicity against human SK-N-MC cells by MTT assay; format: functional, cell-based
MDA-MB-231 [4] = experiment: Ratio of etoposide IC50 to compound IC50 for human MDA-MB-231 cells by MTT assay; format: functional
SK-N-MC [5] = experiment: Ratio of etoposide IC50 to compound IC50 for human SK-N-MC cells by MTT assay; format: functional
MCF7 [6] = experiment: Ratio of etoposide IC50 to compound IC50 for human MCF7 cells by MTT assay; format: functional

`COc1ccc(/C=C2\CCC/C(=C\c3ccccc3[N+](=O)[O-])C2=O)cc1` was tested, and the IC50 (MCF7 [1]) was 11.2 µg/mL (≈ 32.1 µM), the IC50 (MDA-MB-231 [2]) was 45 µg/mL (≈ 129 µM) and the IC50 (SK-N-MC [3]) was 75 µg/mL (≈ 215 µM).

Work on `COc1cc(/C=C2\CCC/C(=C\c3ccc([N+](=O)[O-])cc3)C2=O)cc(Br)c1OC` yielded an IC50 (MCF7 [1]) of 11 µg/mL (≈ 24.1 µM), an IC50 (MDA-MB-231 [2]) of 8.71 µg/mL (≈ 19 µM) and an IC50 (SK-N-MC [3]) of 9.86 µg/mL (≈ 21.5 µM).

`CCOc1c(Br)cc(/C=C2\CCC/C(=C\c3ccc([N+](=O)[O-])cc3)C2=O)cc1OC` showed an IC50 (MCF7 [1]) of 3.08 µg/mL (≈ 6.52 µM), an IC50 (MDA-MB-231 [2]) of 34.7 µg/mL (≈ 73.5 µM) and an IC50 (SK-N-MC [3]) of 3.91 µg/mL (≈ 8.28 µM).

With `CCCOc1c(Br)cc(/C=C2\CCC/C(=C\c3cccc([N+](=O)[O-])c3)C2=O)cc1OC` the “Ratio IC50” value (MDA-MB-231 [4]) was 7, the IC50 (MCF7 [1]) was 0.85 µg/mL (≈ 1.75 µM) and the IC50 (MDA-MB-231 [2]) was 2.99 µg/mL (≈ 6.15 µM). For the same compound, the “Ratio IC50” value (SK-N-MC [5]) was 7, the IC50 (SK-N-MC [3]) was 1.51 µg/mL (≈ 3.1 µM) and the “Ratio IC50” value (MCF7 [6]) was 7.

`COc1cccc(/C=C2\CCC/C(=C\c3ccc([N+](=O)[O-])cc3)C2=O)c1` showed an IC50 (MCF7 [1]) of 5.82 µg/mL (≈ 16.7 µM), an IC50 (MDA-MB-231 [2]) of 51.4 µg/mL (≈ 147 µM) and an IC50 (SK-N-MC [3]) of 11.5 µg/mL (≈ 33 µM).

With `COc1cccc(/C=C2\CCC/C(=C\c3ccccc3[N+](=O)[O-])C2=O)c1` the IC50 (MCF7 [1]) was 5.62 µg/mL (≈ 16.1 µM), the IC50 (MDA-MB-231 [2]) was 14.3 µg/mL (≈ 41 µM) and the IC50 (SK-N-MC [3]) was 4.49 µg/mL (≈ 12.9 µM).

Work on `CCCOc1c(Br)cc(/C=C2\CCC/C(=C\c3ccc([N+](=O)[O-])cc3)C2=O)cc1OC` yielded an IC50 (MCF7 [1]) of 7.98 µg/mL (≈ 16.4 µM), an IC50 (MDA-MB-231 [2]) of 4.01 µg/mL (≈ 8.24 µM) and an IC50 (SK-N-MC [3]) of 23.3 µg/mL (≈ 47.8 µM).

`COc1cc(/C=C2\CCC/C(=C\c3ccc([N+](=O)[O-])cc3)C2=O)cc(Br)c1O` showed an IC50 (MCF7 [1]) of 4.93 µg/mL (≈ 11.1 µM), an IC50 (MDA-MB-231 [2]) of over 100 µg/mL and an IC50 (SK-N-MC [3]) of 16.8 µg/mL (≈ 37.8 µM).

Compound `COc1cc(/C=C2\CCC/C(=C\c3ccc([N+](=O)[O-])cc3)C2=O)ccc1O` has an IC50 (MCF7 [1]) of 7.05 µg/mL (≈ 19.3 µM), an IC50 (MDA-MB-231 [2]) of 13.1 µg/mL (≈ 35.8 µM) and an IC50 (SK-N-MC [3]) of 48 µg/mL (≈ 131 µM).

With `COc1ccc(/C=C2\CCC/C(=C\c3cccc([N+](=O)[O-])c3)C2=O)cc1` the IC50 (MCF7 [1]) was 5.71 µg/mL (≈ 16.3 µM), the IC50 (MDA-MB-231 [2]) was 44.7 µg/mL (≈ 128 µM) and the IC50 (SK-N-MC [3]) was 10.4 µg/mL (≈ 29.7 µM).

`O=C1/C(=C/c2cccc(Cl)c2)CCC/C1=C\c1cccc([N+](=O)[O-])c1` showed an IC50 (MCF7 [1]) of 5.15 µg/mL (≈ 14.6 µM), an IC50 (MDA-MB-231 [2]) of 5.01 µg/mL (≈ 14.2 µM) and an IC50 (SK-N-MC [3]) of 4.15 µg/mL (≈ 11.7 µM).

Work on `CCCCOc1c(Br)cc(/C=C2\CCC/C(=C\c3cccc([N+](=O)[O-])c3)C2=O)cc1OC` yielded an IC50 (MCF7 [1]) of 5.97 µg/mL (≈ 11.9 µM), an IC50 (MDA-MB-231 [2]) of 5.53 µg/mL (≈ 11.1 µM) and an IC50 (SK-N-MC [3]) of 25.3 µg/mL (≈ 50.7 µM).

For `COc1cc(/C=C2\CCC/C(=C\c3cccc([N+](=O)[O-])c3)C2=O)cc(Br)c1OC`, the IC50 (MCF7 [1]) was 4.72 µg/mL (≈ 10.3 µM), the IC50 (MDA-MB-231 [2]) was 13.9 µg/mL (≈ 30.4 µM) and the IC50 (SK-N-MC [3]) was 16.7 µg/mL (≈ 36.4 µM).

`O=C1/C(=C/c2ccc(Cl)cc2)CCC/C1=C\c1ccc([N+](=O)[O-])cc1` showed an IC50 (MCF7 [1]) of 1.02 µg/mL (≈ 2.88 µM), an IC50 (MDA-MB-231 [2]) of 12.4 µg/mL (≈ 35.1 µM) and an IC50 (SK-N-MC [3]) of 14 µg/mL (≈ 39.7 µM).

`O=C1/C(=C/c2ccc([N+](=O)[O-])cc2)CCC/C1=C\c1cccc([N+](=O)[O-])c1` gave an IC50 (MCF7 [1]) of 8.4 µg/mL (≈ 23.1 µM), an IC50 (MDA-MB-231 [2]) of 8.85 µg/mL (≈ 24.3 µM) and an IC50 (SK-N-MC [3]) of 17.9 µg/mL (≈ 49.1 µM).

In the case of `COc1cccc(/C=C2\CCC/C(=C\c3ccc([N+](=O)[O-])cc3)C2=O)c1OC`, the IC50 (MCF7 [1]) is reported as 13.3 µg/mL (≈ 35.1 µM), the IC50 (MDA-MB-231 [2]) is reported as 6.73 µg/mL (≈ 17.7 µM) and the IC50 (SK-N-MC [3]) is reported as 22.1 µg/mL (≈ 58.4 µM).

For `CCCOc1c(Br)cc(/C=C2\CCC/C(=C\c3ccccc3[N+](=O)[O-])C2=O)cc1OC`, the “Ratio IC50” value (MDA-MB-231 [4]) was 10, the IC50 (MCF7 [1]) was 4.14 µg/mL (≈ 8.51 µM) and the IC50 (MDA-MB-231 [2]) was 1.99 µg/mL (≈ 4.09 µM). For the same compound, the IC50 (SK-N-MC [3]) was 3.5 µg/mL (≈ 7.2 µM).

`COc1cc(/C=C2\CCC/C(=C\c3ccccc3[N+](=O)[O-])C2=O)cc(Br)c1OC` showed an IC50 (MCF7 [1]) of 3.35 µg/mL (≈ 7.31 µM), an IC50 (MDA-MB-231 [2]) of 8.99 µg/mL (≈ 19.6 µM) and an IC50 (SK-N-MC [3]) of 6.24 µg/mL (≈ 13.6 µM).

Work on `COc1cccc(/C=C2\CCC/C(=C\c3cccc([N+](=O)[O-])c3)C2=O)c1` yielded an IC50 (MCF7 [1]) of 4.17 µg/mL (≈ 11.9 µM), an IC50 (MDA-MB-231 [2]) of 13.2 µg/mL (≈ 37.7 µM) and an IC50 (SK-N-MC [3]) of 4.94 µg/mL (≈ 14.1 µM).

`CCOc1c(Br)cc(/C=C2\CCC/C(=C\c3cccc([N+](=O)[O-])c3)C2=O)cc1OC` was tested, and the IC50 (MCF7 [1]) was 24.9 µg/mL (≈ 52.7 µM), the IC50 (MDA-MB-231 [2]) was 19.3 µg/mL (≈ 40.9 µM) and the IC50 (SK-N-MC [3]) was 10.8 µg/mL (≈ 22.8 µM).

In the case of `COc1cccc(/C=C2\CCC/C(=C\c3cccc([N+](=O)[O-])c3)C2=O)c1OC`, the IC50 (MCF7 [1]) is reported as 5.14 µg/mL (≈ 13.5 µM), the IC50 (MDA-MB-231 [2]) is reported as 5.59 µg/mL (≈ 14.7 µM) and the IC50 (SK-N-MC [3]) is reported as 10.1 µg/mL (≈ 26.6 µM).

In the case of `CCCCOc1c(Br)cc(/C=C2\CCC/C(=C\c3ccc([N+](=O)[O-])cc3)C2=O)cc1OC`, the IC50 (MCF7 [1]) is reported as 27 µg/mL (≈ 54 µM), the IC50 (MDA-MB-231 [2]) is reported as 8.38 µg/mL (≈ 16.7 µM) and the IC50 (SK-N-MC [3]) is reported as 41.3 µg/mL (≈ 82.6 µM).

With `COc1cc([C@@H]2c3cc4c(cc3[C@@H](O[C@@H]3O[C@@H]5CO[C@@H](C)O[C@H]5[C@H](O)[C@H]3O)[C@H]3COC(=O)[C@H]23)OCO4)cc(OC)c1O` [ETOPOSIDE] the IC50 (MCF7 [1]) was 18.4 µg/mL (≈ 31.3 µM), the IC50 (MDA-MB-231 [2]) was 20.5 µg/mL (≈ 34.9 µM) and the IC50 (SK-N-MC [3]) was 14 µg/mL (≈ 23.9 µM).
